Laboratory results as given in patent US10711246B2, “Methods and compositions for generating epicardium cells” (UNIVERSITY HEALTH NETWORK, priority 2013, dated 2020).

Columns and labels:
Type in all cases: cell-based, human
[1] = test system: hESC epicardial-derived smooth muscle-like cells; assay: Calcium transients of EMT-induced cells after norepinephrine (NE) and phenylephrine (PE) stimulation
Protocol: (a) The total proportion of actively cycling cells in EMT-induced cultures was measured for the indicated treatments. Treatment with TGFβ+bFGF generated populations with the largest proportion of actively cycling cells in response to agonists. Bars represent standard error of the mean; N=3/group; *P<0.05, **P<0.01 compared by one-way ANOVA with Tukey post hoc test. (b) The frequency of calcium cycles in actively cycling cells in the conditions as indicated at baseline and after NE and PE addition. Stacked bars represent the contribution to frequency of calcium cycling during baseline recording (hatched lines), and after NE (white) or PE (black) treatment. (c) The amplitude of calcium transients after NE and PE addition in the EMT induced cultures. No Treatment NE N=6 cells, PE N=4 cells; TGFβ NE N=6 cells, PE N=12 cells; TGFβ+bFGF NE N=13 cells, PE N=25 cells. *P<0.05 compared by one-way ANOVA with Tukey post hoc test. (d) The duration of calcium transients after NE and PE addition in the EMT induced cultures. […]
To test the contractile function of the smooth muscle-like cells generated following the EMT induced with TGFβ and TGFβ+bFGF, calcium transients were measured following stimulation with norepinephrine (NE) and phenylephrine (PE) using previously described methods^32. […]

WT1+ epicardial cells = assay: ALDH1A2 expression (qRT-PCR) and Aldefluor staining (flow cytometry) after EMT induction; conditions: cultures in which EMT had been induced, versus non-treated passaged epicardial cells
Excerpt: FIG. 17. WT1^+ epicardial cells upregulate ALDH1A2 expression and display aldehyde dehydrogenase activity following passage. (a) qRT-PCR-based expression analyses of ALDH1A1, ALDH1A2 and ALDH1A3 in D15 WT^+ epicardial cultures and Day 15+8 post-passage non-treated epicardial cultures. Values are relative to the housekeeping gene TBP. Error bars represent standard deviation from the mean of the values from three independent experiments (N=3); *P≤0.05, **P≤0.01 compared to ALDH1A2 expression levels. (b) qRT-PCR-based expression analyses of ALDH1A2 on days 2, 4, 6 and 8 following the initiation of EMT. Values are expressed as fold change to experiment-matched pre-passaged day 15 WT1^+ epicardial cultures. Error bars represent standard deviation from the mean of the values from three independent experiments (N=3); *P≤0.05, **P≤0.01 compared to no treatment control cultures. (c) Flow cytometric analyses of Aldefluor on day 15 populations generated from cells treated from days 4 to 6 with DM (non-cardiac, non-epicardial), BMP4+XAV (cardiomyocytes) or BMP4+CHIR (WT1^+ epicardial cells). (d) Flow cytometry analyses of Aldefluor on WT1^+ epicardium-derived cultures 8 days following the initiation of EMT with the indicated treatments. […]

hPSC-derived Epi cells = assay: Matrigel invasion assay eight days after EMT induction, confocal microscopy and 3D reconstruction; conditions: eight days following induction of EMT
Excerpt: (a) Representative fields of view in the XY plane (top view) and 3D reconstruction (side view) of the matrigel invasion assay on D8 after EMT induction.
(b) Maximum matrigel invasion depth on D8 following EMT initiation. Bars represent standard error of the mean of the values from three independent experiments (N=3); **P≤0.01 compared to non-treated controls as analyzed by Student's T-test.
It is well established that during heart development EPDCs, and in particular cardiac fibroblasts, invade the myocardial layer^33. To assess this potential of the hPSC-derived Epi cells, their ability to invade a 3D layer of Matrigel following induction of EMT with the different factors was measured. To enable us to easily track the migration of the cells, the Epi population was generated from GFP expressing hESCs^48. Matrigel invasion was monitored eight days following the induction of EMT by confocal microscopy and evaluated using 3D image reconstruction (FIG. 16a). […] Along with invasion, bFGF treatment also led to an increase in total cell number within the regions of interest (ROI). […] To further quantify the degree of invasion, the proportion of cells in each population that migrated to different depths was calculated. Virtually all of the cells in the non-induced, the TGFβ-induced and TGFβ+bFGF-induced populations were detected within the first 200 μm of the gel. In contrast, approximately half of the cells in the bFGF-induced population migrated beyond this depth, some as far as 600 μm.

[2] = test system: hESC-derived WT1+ epicardial cells; assay: EMT induction in passaged day 15 WT1+ epicardial cells; qRT-PCR, flow cytometry, immunostaining; conditions: for WT1 expression over time after EMT initiation: qRT-PCR, eight-day culture
Protocol: FIG. 11. WT1^+ epicardial cells undergo EMT in response to TGFβ1 and bFGF treatment. (a) Scheme of the protocol used for EMT induction. Day 15 WT1+ cultures are passaged, allowed to settle for 1 day and then treated with TGFβ1 (5 ng/ml) for 4 days followed by no treatment (TGFβ), sequential treatment with […] (5 ng/ml) for 4 days followed by bFGF (10 ng/ml) for 4 days (TGFβ+bFGF), or bFGF (10 ng/ml) treatment for 8 days (bFGF). No treatment of the cultures serves as a control. (b) Flow cytometric analyses of cultures 8 days following the initiation of EMT for the cell surface mesenchymal marker CD90. Gray filled histogram indicates control culture fluorescence intensity. (c) qRT-PCR-based expression of the epicardial gene WT1 and the EMT-induced genes SNAI1 and SNAI2 on days 2, 4, 6 and 8 after EMT initiation. Values are expressed as fold change to experiment-matched pre-passaged day 15 WT1+ cultures. Error bars represent standard deviation from the mean of the values from three independent experiments (N=3); *P≤0.05, **P≤0.01 compared to no treatment control.
FIG. 12. WT1 and ZO1 expression is lost in response to EMT. Phase contrast and fluorescent immunostaining showing cell morphology and the expression of ZO1 and WT1 proteins in epicardial cultures 8 days after EMT initiation with the indicated factors.
FIG. 13. EPDCs display characteristic expression of fibroblasts and vascular smooth muscle cell markers by fluorescent immunostaining. Fluorescent immunostaining showing α-Smooth muscle actin (SMA) and Vimentin (VIM) protein in cultures 8 days after EMT initiation with the indicated factors.
FIG. 14. EPDCs display characteristic expression of fibroblasts and vascular smooth muscle cell markers by qRT-PCR. qRT-PCR-based expression analyses of the smooth muscle genes […], MYH11, TAGLN and SMTN and the epicardial/cardiac fibroblast gene TCF21 in the indicated cultures 8 days after EMT initiation. Values are expressed as fold change to experiment-matched pre-passaged day 15 WT1^+ epicardium cultures. Error bars represent standard deviation from the mean of the values from three independent experiments (N=3); *P≤0.05, **P≤0.01 compared to no treatment control cultures.
To determine if the hESC-derived WT1^+ epicardial-like cells can undergo EMT, an assay was designed in which D15 epicardial cells are passaged, allowed one day to recover, and then treated for a total of eight days with one of four treatment regimens. The regimens consisted of: 1) TGFβ-1 for four days followed by four days with no additional factor (TGFβ), 2) TGFβ-1 for four days followed by four days with bFGF (TGFβ+bFGF), 3) bFGF for eight days (bFGF) or 4) no additional factors for eight days (FIG. 11a). Following culture under the different conditions, the cells were harvested and analyzed by qRT-PCR and flow cytometry.

[3] = qRT-PCR 8 days after EMT initiation

Row | Substance | amplitude of calcium response ([1]; PE-treated, compared to control cultures) | calcium cycling rates ([1]; following PE stimulation, cells that exhibited calcium transients) | ALDH1A2 expression and Aldefluor staining (WT1+ epicardial cells) | Matrigel invasion (migratory behaviour, depth) (hPSC-derived Epi cells) | total cell number within the regions of interest (hPSC-derived Epi cells) [cells per ROI] | ZO1 (and WT1) expression by immunostaining ([2]; 8 days after EMT initiation) | vimentin (VIM) immunostaining ([2]; 8 days after EMT initiation, compared with bFGF alone) | α-smooth muscle actin (SMA) immunostaining ([2]; compared to bFGF or absence of factors) | expression of smooth muscle genes CNN1, MYH11, TAGLN, SMTN and fibroblast marker TCF21 [2, 3] | SNAI2 expression ([2]; qRT-PCR after EMT initiation) | WT1 expression over time after EMT initiation [2] | proportion of cells that migrated beyond 200 μm (hPSC-derived Epi cells) | farthest depth of migration (hPSC-derived Epi cells; some cells) [μm] | MYH11 expression [2, 3] | SNAI1 expression ([2]; qRT-PCR after EMT initiation)
1 | TGFβ-1 | greatest | faster calcium cycling rates than those in the non-induced control cultures | dramatically lower levels | little capacity to invade the Matrigel | 56.8±9.5 | internalized or lost | substantially brighter staining | higher levels | upregulated expression of CNN1, MYH11, TAGLN and SMTN but not TCF21 | increases in SNAI2 expression | steady decreases in WT1 expression | – | – | – | –
2 | bFGF | – | – | dramatically lower levels | most migratory and invaded the matrigel to the greatest depth | 379.7±40.5 | internalized or lost | – | – | expressed TCF21 in addition to CNN1, TAGLN and SMTN | increases in SNAI2 expression | did not decline below those of the control | approximately half | ≤ 600 | did not express MYH11 | induced the expression of SNAI1
